Results from paper PMC9851200, “Multiparameter phenotypic screening for endogenous TFEB and TFE3 translocation identifies novel chemical series modulating lysosome function” (Autophagy, 2022).

Assays:
Assay type in all cases: binding
[1] = target: kinases (KINOMEscan panel) (Homo sapiens, UniProt O15264)
[2] = target: T1, kinases (KINOMEscan panel) (Homo sapiens, UniProt Q6XUX3); settings: DSTYK; NEW KINOMEscan
T1 sequence (Q6XUX3 1-929): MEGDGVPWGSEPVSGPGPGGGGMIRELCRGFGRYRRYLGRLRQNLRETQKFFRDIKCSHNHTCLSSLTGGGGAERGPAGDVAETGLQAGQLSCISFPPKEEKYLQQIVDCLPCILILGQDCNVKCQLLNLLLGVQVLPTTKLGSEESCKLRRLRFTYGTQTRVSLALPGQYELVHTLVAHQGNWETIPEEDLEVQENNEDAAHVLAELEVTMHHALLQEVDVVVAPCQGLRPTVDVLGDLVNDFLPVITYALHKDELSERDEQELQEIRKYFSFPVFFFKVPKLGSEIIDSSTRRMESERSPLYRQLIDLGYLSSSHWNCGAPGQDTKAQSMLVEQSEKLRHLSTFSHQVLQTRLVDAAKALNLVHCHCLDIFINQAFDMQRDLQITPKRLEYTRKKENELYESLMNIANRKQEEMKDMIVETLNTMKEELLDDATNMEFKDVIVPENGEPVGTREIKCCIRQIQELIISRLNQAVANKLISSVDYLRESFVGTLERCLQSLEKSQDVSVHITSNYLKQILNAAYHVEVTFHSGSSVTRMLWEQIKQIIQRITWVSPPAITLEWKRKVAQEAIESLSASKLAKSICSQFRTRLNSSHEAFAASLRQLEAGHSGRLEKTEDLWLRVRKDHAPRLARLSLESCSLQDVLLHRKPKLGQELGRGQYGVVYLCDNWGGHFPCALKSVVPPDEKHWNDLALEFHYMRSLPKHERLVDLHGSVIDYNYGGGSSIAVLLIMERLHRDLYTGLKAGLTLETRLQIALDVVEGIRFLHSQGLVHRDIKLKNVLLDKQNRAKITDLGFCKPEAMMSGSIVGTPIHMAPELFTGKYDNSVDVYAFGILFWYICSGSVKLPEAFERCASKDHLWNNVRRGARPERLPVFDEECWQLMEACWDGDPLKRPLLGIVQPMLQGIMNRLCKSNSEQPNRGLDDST

[3] = target: kinases (KINOMEscan panel) (Homo sapiens, UniProt P07949, M918T); settings: NEW KINOMEscan
kinases (KINOMEscan panel) (Homo sapiens, UniProt P07949, M918T), sequence (P07949 29-1114 M918T): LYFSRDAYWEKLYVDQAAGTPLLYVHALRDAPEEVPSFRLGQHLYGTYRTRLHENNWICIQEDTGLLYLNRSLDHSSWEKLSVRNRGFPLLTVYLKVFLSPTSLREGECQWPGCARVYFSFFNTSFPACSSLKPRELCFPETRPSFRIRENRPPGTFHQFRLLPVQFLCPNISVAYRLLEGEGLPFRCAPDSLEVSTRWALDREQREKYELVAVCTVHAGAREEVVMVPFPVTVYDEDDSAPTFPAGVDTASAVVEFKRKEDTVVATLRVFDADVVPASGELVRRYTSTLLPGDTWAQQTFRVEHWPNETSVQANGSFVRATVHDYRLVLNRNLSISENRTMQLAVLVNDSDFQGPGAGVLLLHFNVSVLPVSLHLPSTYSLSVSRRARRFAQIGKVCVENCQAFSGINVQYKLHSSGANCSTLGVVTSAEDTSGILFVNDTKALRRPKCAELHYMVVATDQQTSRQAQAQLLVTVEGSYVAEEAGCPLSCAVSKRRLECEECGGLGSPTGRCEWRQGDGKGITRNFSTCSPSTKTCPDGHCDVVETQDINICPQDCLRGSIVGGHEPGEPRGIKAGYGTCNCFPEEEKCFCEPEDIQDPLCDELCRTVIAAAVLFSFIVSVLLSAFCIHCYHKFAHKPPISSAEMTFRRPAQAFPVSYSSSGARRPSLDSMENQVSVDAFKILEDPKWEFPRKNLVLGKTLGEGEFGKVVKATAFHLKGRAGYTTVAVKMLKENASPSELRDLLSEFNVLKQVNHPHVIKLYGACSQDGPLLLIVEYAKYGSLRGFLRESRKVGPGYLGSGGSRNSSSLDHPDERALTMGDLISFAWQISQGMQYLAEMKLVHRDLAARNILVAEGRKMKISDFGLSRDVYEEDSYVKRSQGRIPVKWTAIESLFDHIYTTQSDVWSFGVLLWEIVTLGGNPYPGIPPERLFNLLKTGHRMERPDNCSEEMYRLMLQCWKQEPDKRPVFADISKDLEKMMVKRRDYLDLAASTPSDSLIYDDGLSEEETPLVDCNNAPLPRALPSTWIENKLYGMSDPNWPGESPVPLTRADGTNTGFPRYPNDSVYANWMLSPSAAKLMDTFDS

[4] = target: kinases (KINOMEscan panel) (Homo sapiens, UniProt P42336, E545K); settings: NEW KINOMEscan
kinases (KINOMEscan panel) (Homo sapiens, UniProt P42336, E545K), sequence (P42336 whole entry E545K): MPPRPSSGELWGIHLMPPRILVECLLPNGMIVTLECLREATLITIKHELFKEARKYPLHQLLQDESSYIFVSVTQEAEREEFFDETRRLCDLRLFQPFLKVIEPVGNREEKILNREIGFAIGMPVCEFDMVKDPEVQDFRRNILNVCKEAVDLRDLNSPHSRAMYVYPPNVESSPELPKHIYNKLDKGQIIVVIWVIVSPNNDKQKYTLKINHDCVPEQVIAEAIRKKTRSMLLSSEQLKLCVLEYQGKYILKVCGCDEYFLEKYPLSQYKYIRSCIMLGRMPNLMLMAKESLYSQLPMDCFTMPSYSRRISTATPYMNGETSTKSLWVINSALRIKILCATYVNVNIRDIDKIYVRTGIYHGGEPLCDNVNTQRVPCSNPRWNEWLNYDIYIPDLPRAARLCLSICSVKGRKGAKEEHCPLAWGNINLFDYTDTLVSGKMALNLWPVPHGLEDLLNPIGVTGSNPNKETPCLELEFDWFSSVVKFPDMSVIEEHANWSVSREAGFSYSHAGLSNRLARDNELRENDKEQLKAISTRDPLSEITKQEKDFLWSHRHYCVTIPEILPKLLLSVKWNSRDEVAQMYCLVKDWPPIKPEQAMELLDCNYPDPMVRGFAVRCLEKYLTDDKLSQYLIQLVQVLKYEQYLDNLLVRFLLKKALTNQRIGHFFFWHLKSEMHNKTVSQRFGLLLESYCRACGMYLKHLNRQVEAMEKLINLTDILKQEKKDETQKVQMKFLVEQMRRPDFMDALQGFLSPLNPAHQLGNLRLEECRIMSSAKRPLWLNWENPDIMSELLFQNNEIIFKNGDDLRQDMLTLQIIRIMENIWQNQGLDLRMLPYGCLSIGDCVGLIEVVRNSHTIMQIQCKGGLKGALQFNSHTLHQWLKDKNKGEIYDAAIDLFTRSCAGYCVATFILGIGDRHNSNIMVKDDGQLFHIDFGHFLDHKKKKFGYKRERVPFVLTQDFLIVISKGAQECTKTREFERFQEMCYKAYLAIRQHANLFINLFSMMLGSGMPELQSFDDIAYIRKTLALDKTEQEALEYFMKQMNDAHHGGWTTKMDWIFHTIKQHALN

[5] = target: T2, kinases (KINOMEscan panel) (Homo sapiens, UniProt Q56UN5); settings: NEW KINOMEscan
T2 sequence (Q56UN5 1-1328): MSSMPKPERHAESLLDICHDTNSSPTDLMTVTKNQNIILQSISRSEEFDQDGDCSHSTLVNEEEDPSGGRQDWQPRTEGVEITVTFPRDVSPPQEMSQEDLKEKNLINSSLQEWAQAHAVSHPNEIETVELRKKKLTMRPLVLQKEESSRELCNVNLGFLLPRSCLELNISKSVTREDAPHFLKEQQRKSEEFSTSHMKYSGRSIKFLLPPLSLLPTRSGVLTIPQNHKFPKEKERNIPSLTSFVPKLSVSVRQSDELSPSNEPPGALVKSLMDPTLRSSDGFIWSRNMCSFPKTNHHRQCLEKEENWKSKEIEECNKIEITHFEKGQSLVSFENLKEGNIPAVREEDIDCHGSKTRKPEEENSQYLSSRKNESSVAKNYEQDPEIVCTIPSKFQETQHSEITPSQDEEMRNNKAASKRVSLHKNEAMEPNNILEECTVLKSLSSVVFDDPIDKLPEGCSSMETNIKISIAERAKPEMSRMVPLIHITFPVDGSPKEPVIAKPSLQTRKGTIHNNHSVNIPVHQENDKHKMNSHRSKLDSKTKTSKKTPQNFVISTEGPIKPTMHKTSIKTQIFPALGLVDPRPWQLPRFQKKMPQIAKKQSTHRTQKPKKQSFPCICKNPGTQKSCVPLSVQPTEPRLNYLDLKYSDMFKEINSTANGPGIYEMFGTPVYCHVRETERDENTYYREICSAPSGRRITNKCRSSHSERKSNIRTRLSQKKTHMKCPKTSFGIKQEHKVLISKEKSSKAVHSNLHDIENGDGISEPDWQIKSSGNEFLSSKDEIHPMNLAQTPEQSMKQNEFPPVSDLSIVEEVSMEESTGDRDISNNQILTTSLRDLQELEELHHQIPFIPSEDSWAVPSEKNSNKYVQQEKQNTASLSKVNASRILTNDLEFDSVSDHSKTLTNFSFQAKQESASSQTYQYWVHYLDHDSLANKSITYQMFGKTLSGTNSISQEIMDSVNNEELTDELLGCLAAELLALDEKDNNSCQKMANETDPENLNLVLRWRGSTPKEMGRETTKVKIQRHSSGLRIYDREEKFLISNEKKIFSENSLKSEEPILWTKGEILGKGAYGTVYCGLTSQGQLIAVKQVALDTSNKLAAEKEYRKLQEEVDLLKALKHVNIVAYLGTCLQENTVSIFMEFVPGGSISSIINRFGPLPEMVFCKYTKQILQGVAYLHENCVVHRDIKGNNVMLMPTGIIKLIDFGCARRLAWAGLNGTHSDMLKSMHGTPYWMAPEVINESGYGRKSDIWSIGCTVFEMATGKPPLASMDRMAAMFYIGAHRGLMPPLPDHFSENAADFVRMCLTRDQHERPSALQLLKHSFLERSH

kinases (KINOMEscan panel) (Homo sapiens, UniProt O15264), sequence (O15264 whole entry): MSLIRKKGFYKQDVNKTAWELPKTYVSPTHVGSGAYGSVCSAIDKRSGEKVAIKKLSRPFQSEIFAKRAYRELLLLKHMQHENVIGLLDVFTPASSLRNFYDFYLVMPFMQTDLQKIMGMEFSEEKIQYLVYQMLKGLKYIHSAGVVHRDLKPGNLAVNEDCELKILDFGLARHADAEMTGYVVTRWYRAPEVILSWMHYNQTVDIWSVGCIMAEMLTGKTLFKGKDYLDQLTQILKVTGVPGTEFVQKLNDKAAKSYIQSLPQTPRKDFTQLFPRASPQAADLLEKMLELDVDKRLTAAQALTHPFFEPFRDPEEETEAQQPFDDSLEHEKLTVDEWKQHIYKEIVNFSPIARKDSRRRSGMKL

Row | Structure (SMILES) | KINOMEscan MAPK13/p38-delta [1] | KINOMEscan DSTYK [2] | KINOMEscan RET(M918T) [3] | KINOMEscan PIK3CA(E545K) [4] | KINOMEscan MAP3K19 [5]
1 | Cc1cccc(-c2nc(Nc3ccc4nn(C)cc4c3)c3ccccc3n2)n1 [NK167] | 0 | 0 | 0 | 67 | 0
2 | Cc1cccc(-c2nc(N(C)c3ccc4ncsc4c3)c3ccccc3n2)n1 [NK-161] | 6 | 0 | 15 | 40 | 0
